Experimental data from paper PMC7717600, “Novel [(N-alkyl-3-indolylmethylene)hydrazono]oxindoles arrest cell cycle and induce cell apoptosis by inhibiting CDK2 and Bcl-2: synthesis, biological evaluation and in silico studies” (Journal of Enzyme Inhibition and Medicinal Chemistry, 2020).
Like-named read-outs stand apart in the source and are kept apart here.

What was measured:
UACC-62 = assay: cells; settings: Homo sapiens
MDA-MB-468 = assay: cells; settings: Homo sapiens
T-47D = assay: cells; settings: Homo sapiens, T47D
Bcl-2 = Bcl-2 (Homo sapiens, UniProt P10415); assay: Bcl-2 inhibitory activity; assay type: biochemical; settings: Bcl-2, mean ± SE of three
Chain of Bcl-2 (P10415 whole entry): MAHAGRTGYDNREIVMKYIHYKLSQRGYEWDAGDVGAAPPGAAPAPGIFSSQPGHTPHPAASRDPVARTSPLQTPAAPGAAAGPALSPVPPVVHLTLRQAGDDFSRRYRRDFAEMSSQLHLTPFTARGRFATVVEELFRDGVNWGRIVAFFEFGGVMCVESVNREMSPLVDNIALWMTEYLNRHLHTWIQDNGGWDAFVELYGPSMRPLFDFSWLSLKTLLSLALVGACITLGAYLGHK
Experimental: These assays were carried out as reported earlier[38]^,[39].

HOP-62 = assay: cells; settings: Homo sapiens
SF-268 = assay: cells; settings: Homo sapiens
RPMI-8226 = assay: cells; settings: Homo sapiens
SK-MEL-28 = assay: cells; settings: Homo sapiens
HCT-15 = assay: cells; settings: Homo sapiens
SF-539 = assay: cells; settings: Homo sapiens
SN12C = assay: cells; settings: Homo sapiens
HOP-92 = assay: cells; settings: Homo sapiens
NCI-H23 = assay: cells; settings: Homo sapiens
786-0 = assay: cells; settings: Homo sapiens
MDA-MB-231/ATCC = assay: cells; settings: Homo sapiens
UACC-257 = assay: cells; settings: Homo sapiens
TK-10 = assay: cells; settings: Homo sapiens
ACHN = assay: cells; settings: Homo sapiens
SK-MEL-2 = assay: cells; settings: Homo sapiens
BT-549 = assay: cells; settings: Homo sapiens
[1] = tested on: panel of 59 human cancer cell lines; assay: NCI screening, panel and subpanel summaries; settings: for GI50: Homo sapiens
Experimental: GI50 values reflect the level for growth inhibitory effect, whereas TGI represents cytostatic impact. In addition, LC50 parameter is considered to be the cytotoxicity parameter for the examined hybrid.
Furthermore, dividing the full-panel MG-MID (µM) for the examined derivative by its individual subpanel MG-MID (µM) provides an index which is regarded as a measure for its selectivity.
The NCI-USA anticancer screening was carried out following the NCI, Bethesda, Drug Evaluation Branch protocol[22–24], utilising the SRB protein assay[21], as reported earlier[34]^,[35].
NCI-in vitro antitumor activity towards 59 cancer cell lines
The cytotoxicity assays were performed at National Cancer Institute (NCI), Bethesda, USA (against 59 cell lines). The human tumor cell lines of the cancer screening panel were grown in
screening experiment, cells were inoculated into 96 well microtiter plates in 100 µ at plating densities ranging from 5000 to 40,000 cells/well depending on the doubling time of individual
and 100% relative humidity for 24 h prior to addition of experimental drugs. After 24 h, two
plates of each cell line were fixed in situ with trichloroacetic acid (TCA), to represent a
measurement of the cell population for each cell line at the time of drug addition (Tz).
Experimental drugs were solubilized in dimethyl sulfoxide at 400-fold the desired final
maximum test concentration and stored frozen prior to use. At the time of drug addition, an
aliquot of frozen concentrate was thawed and diluted to twice the desired final maximum test
concentration with complete medium containing 50 µg/ml gentamicin. Additional four, 10-fold
or ½ log serial dilutions were made to provide a total of five drug concentrations plus control.
Aliquots of 100 µl of these different drug dilutions were added to the appropriate microtiter wells
already containing 100 µl of medium, resulting in the required final drug concentrations.
Triplicate wells were prepared for each individual dose. Following drug addition, the plates were

UO-31 = assay: cells; settings: Homo sapiens
CCRF-CEM = assay: cells; settings: Homo sapiens
EKVX = assay: cells; settings: Homo sapiens
MOLT-4 = assay: cells; settings: Homo sapiens
DU-145 = assay: cells; settings: Homo sapiens
SF-295 = assay: cells; settings: Homo sapiens
MCF7 = assay: cells; settings: Homo sapiens
SNB-19 = assay: cells; settings: Homo sapiens
A498 = assay: cells; settings: Homo sapiens
IGROV1 = assay: cells; settings: Homo sapiens
RXF 393 = assay: cells; settings: Homo sapiens
OVCAR-8 = assay: cells; settings: Homo sapiens
HCT-116 = assay: cells; settings: Homo sapiens

Compound: CCCn1cc(C=NN=C2C(=O)Nc3ccc(C)cc32)c2ccccc21 [Compound 8a]
- GI50 (UACC-62; UACC-62): 2.24 µM
- CC50 (UACC-62; UACC-62, read-out: LC50): > 100 µM
- GI50 (MDA-MB-468; MDA-MB-468): 1.69 µM
- CC50 (MDA-MB-468; MDA-MB-468, read-out: LC50): 79.4 µM
- GI50 (T-47D; T-47D): 0.416 µM
- CC50 (T-47D; read-out: LC50): > 100 µM
- IC50 (Bcl-2): 0.46 ± 0.02 µM
- GI50 (HOP-62; HOP-62): 4.17 µM
- CC50 (HOP-62; HOP-62, read-out: LC50): > 100 µM
- GI50 (SF-268; SF-268): 3.33 µM
- CC50 (SF-268; SF-268, read-out: LC50): > 100 µM
- GI50 (RPMI-8226; RPMI-8226): 1.33 µM
- CC50 (RPMI-8226; RPMI-8226, read-out: LC50): > 100 µM
- GI50 (SK-MEL-28; SK-MEL-28): 4.7 µM
- CC50 (SK-MEL-28; SK-MEL-28, read-out: LC50): > 100 µM
- GI50 (HCT-15; HCT-15): 2.63 µM
- CC50 (HCT-15; HCT-15, read-out: LC50): > 100 µM
- GI50 (SF-539; SF-539): 2.69 µM
- CC50 (SF-539; SF-539, read-out: LC50): > 100 µM
- GI50 (SN12C): 3.2 µM
- CC50 (SN12C; read-out: LC50): > 100 µM
- GI50 (HOP-92; HOP-92): 1.87 µM
- CC50 (HOP-92; HOP-92, read-out: LC50): > 100 µM
- GI50 (NCI-H23; NCI-H23): 3.13 µM
- CC50 (NCI-H23; NCI-H23, read-out: LC50): > 100 µM
- GI50 (786-0; 786-0): 5.94 µM
- CC50 (786-0; 786-0, read-out: LC50): > 100 µM
- GI50 (MDA-MB-231/ATCC; MDA-MB-231): 1.81 µM
- CC50 (MDA-MB-231/ATCC; MDA-MB-231, read-out: LC50): > 100 µM
- GI50 (UACC-257; UACC-257): 12.3 µM
- CC50 (UACC-257; UACC-257, read-out: LC50): > 100 µM
- GI50 (TK-10; TK-10): 11.1 µM
- CC50 (TK-10; TK-10, read-out: LC50): > 100 µM
- GI50 (ACHN): 3.56 µM
- CC50 (ACHN; read-out: LC50): > 100 µM
- GI50 (SK-MEL-2; SK-MEL-2): 2.42 µM
- CC50 (SK-MEL-2; SK-MEL-2, read-out: LC50): > 100 µM
- GI50 (BT-549; BT-549): 1.79 µM
- CC50 (BT-549; BT-549, read-out: LC50): > 100 µM
- mean GI % ([1]; 10 µM single dose, all cell lines): 59%
- Mean Growth Percent ([1]; 1.00E-5 Molar, one dose mean graph): 41.08%
- Selectivity index ([1]; Breast Cancer subpanel): 1.00
- Selectivity index ([1]; CNS Cancer subpanel): 0.75
- Selectivity index ([1]; Colon Cancer subpanel): 1.25
- GI50 ([1]; read-out: Full panel MG-MID (GI50), five-dose): 3.1 µM
- GI50 ([1]; read-out: GI50 values range, five-dose, across cell lines except UACC-257, TK-10, HS 578 T): 1.17 to 8.41 µM
- GI50 ([1]; read-out: MG-MID (GI50), Breast Cancer subpanel): 3.09 µM
- GI50 ([1]; read-out: MG-MID (GI50), CNS Cancer subpanel): 4.08 µM
- GI50 ([1]; read-out: MG-MID (GI50), Colon Cancer subpanel): 2.47 µM
- GI50 ([1]; read-out: MG-MID (GI50), Leukaemia subpanel): 1.33 µM
- GI50 ([1]; read-out: MG-MID (GI50), Melanoma subpanel): 3.45 µM
- GI50 ([1]; read-out: MG-MID (GI50), NSCL Cancer subpanel): 3.22 µM
- GI50 ([1]; read-out: MG-MID (GI50), Ovarian Cancer subpanel): 3.24 µM
- GI50 ([1]; read-out: MG-MID (GI50), Prostate Cancer subpanel): 2.85 µM
- GI50 ([1]; read-out: MG-MID (GI50), Renal Cancer subpanel): 4.23 µM
- GI50 ([1]; read-out: sub-panel GI50 (MG-MID) range, five-dose): 1.33 to 4.23 µM
- Selectivity index ([1]; Leukaemia subpanel): 2.33
- Selectivity index ([1]; Melanoma subpanel): 0.89
- Selectivity index ([1]; NSCL Cancer subpanel): 0.96
- Selectivity index ([1]; Ovarian Cancer subpanel): 0.95
- Selectivity index ([1]; Prostate Cancer subpanel): 1.08
- Selectivity index ([1]; Renal Cancer subpanel): 0.73
- Log10GI50 _MID ([1]; five-dose mean graph): -5.59 Molar
- Log10LC50 _MID ([1]; five-dose mean graph): -4.12 Molar
- Log10TGI _MID ([1]; five-dose mean graph): -4.69 Molar
- TGI range ([1]; five-dose, against 22 cancer cell lines): 2.96 to 8.03 µM
- TGI interval ([1]; five-dose, remaining cancer cell lines): 10.6 to 96.6 µM
- selectivity ratios range ([1]; full-panel MG-MID / subpanel MG-MID): 0.73 to 2.33
- GI50 (UO-31; UO-31): 2.28 µM
- CC50 (UO-31; UO-31, read-out: LC50): > 100 µM
- GI50 (CCRF-CEM): 1.94 µM
- CC50 (CCRF-CEM; read-out: LC50): > 100 µM
- GI50 (EKVX): 2.36 µM
- CC50 (EKVX; read-out: LC50): > 100 µM
- GI50 (MOLT-4; MOLT-4, MOLT-4): 0.682 µM
- CC50 (MOLT-4; MOLT-4, read-out: LC50): > 100 µM
- GI50 (DU-145; DU-145): 3.88 µM
- CC50 (DU-145; DU-145, read-out: LC50): > 100 µM
- GI50 (SF-295; SF-295): 8.41 µM
- CC50 (SF-295; SF-295, read-out: LC50): > 100 µM
- GI50 (MCF7; MCF7): 1.54 µM
- CC50 (MCF7; MCF7, read-out: LC50): > 100 µM
- GI50 (SNB-19; SNB-19): 4.24 µM
- CC50 (SNB-19; SNB-19, read-out: LC50): > 100 µM
- GI50 (A498; A498): 1.37 µM
- CC50 (A498; A498, read-out: LC50): > 100 µM
- GI50 (IGROV1; IGROV-1): 3.38 µM
- CC50 (IGROV1; IGROV-1, read-out: LC50): > 100 µM
- GI50 (RXF 393; RXF 393): 2.17 µM
- CC50 (RXF 393; RXF 393, read-out: LC50): > 100 µM
- GI50 (OVCAR-8; OVCAR-8): 5.41 µM
- CC50 (OVCAR-8; OVCAR-8, read-out: LC50): > 100 µM
- GI50 (HCT-116; HCT-116): 1.75 µM
- CC50 (HCT-116; HCT-116, read-out: LC50, HCT-116): 19 µM
